Laboratory results taken from patent US20080008707A1, “Denatured collagen peptides and uses thereof” (Cell-Matrix, Inc., priority 2006, published 2008).
Marks after values point to notes of the source that are not given here. Square brackets hold non-standard residues; d marks the D form. Ends that are not written are not given here. Hyp = O=C(O)[C@@H]1C[C@@H](O)CN1

Columns and labels:
[1] = test system: D93 binding to human denatured-collagen IV; assay: Competition ELISA: synthetic peptides blocking D93 binding to heat denatured collagen IV
Method: (§1) The ELISA was conducted as follows: wells of a 96-well microtiter plate (Immulon, 4 HBX flat-bottomed, Thermo Electron Corporation, Waltham, Mass.) were coated with 100 μL/well of dn-collagen IV at 10 μg/mL in Phosphate Buffered Saline (PBS) overnight at 4° C. The plate was washed 3 times (3×) with PBS containing 0.05% (v/v) Tween-20 (PBST) using an automated plate washer.
(§2) The plate was blocked by adding 300 μL/well of 1% BSA (w/v) in PBS for 1 hour at 25° C. followed by washing 3× in PBST as above.
(§3) Solutions of D93 or HUI77 were prepared with various concentrations of peptide or antibody inhibitor and incubate for 15 minutes. D93 or HUI77 was prepared at 200 ng/mL in 1% BSA/PBS.
(§4) For antibody blocking studies using synthetic peptides: peptide inhibitor stock solutions were prepared at 2 mM, 0.2 mM, 0.02 mM, and 0.002 mM in 1% BSA/PBS. 500 μL of a 2 mM peptide solution in 1% BSA/PBS was prepared and diluted 1:10 in 500 μL a total of three times to make peptide inhibitor concentrations.
(§5) 200 μL of D93 or HUI77 at 200 ng/mL solution was combined with 200 μL of peptide or antibody inhibitor solution and incubated for 15 minutes at room temperature.
(§6) D93 or HUI77 with various concentrations of inhibitors (2 mM, 0.2 mM, 0.02 mM, and 0.002 mM) were added to microplate wells and incubated for 1 hour at 25° C. The plate was washed 3× in PBST as above.
(§7) To each microtiter plate well, 100 μL of diluted anti-human IgG or anti-mouse IgM conjugated to horseradish peroxidase (HRP) in PBST was added and incubated for one hour at 25° C.: (a) for D93: Goat anti-human IgG-HRP (Jackson ImmunoResearch, Catalog No. 109-035-088) was used at 1:20,000 and (b) for HUI77: Goat anti-mouse IgM-HRP was used at 1:4,000. Plates were washed 3× in PBST as above.
(§8) Tetramethylbenzidine (TMB) substrate (100 μL; Pierce Chemicals)) was added to wells and the plates were allowed to develop at room temperature for 15 minutes in the dark. Substrate development was stopped by adding 50 μL/well of 2N H2SO4. The microtiter […] plates were read at 450 nm within five minutes of adding the H2SO4. Reactivity was measured with a microplate reader (Molecular Devices, Sunnyvale, Calif.) at a wavelength of 450 nm and analyzed using SOFTMax® PRO4.0 (Molecular Devices). All samples were tested in triplicate.
(§9) Individual peptides with amino acid substitutions and deletions were also synthesized based on the primary and secondary peptide arrays. […] The inhibitory activity of the individual peptides was tested by ELISA as previously described to measure binding of D93 or HUI77 to denatured collagen where peptides and antibodies were prepared at a 2× concentration and pre-incubated for 15 minutes prior to adding to microtiter plates coated with dn-collagen.
(§10) 96-well plates were coated with 100 μL/well of denatured (dn) collagen IV at 10 μg/mL in phosphate buffered saline (PBS) overnight at 4° C. followed by washing the plates in an automated plate washer 3 times in PBS containing 0.05% (v/v) Tween-20 (PBST). Non-specific binding was prevented by blocking the wells by adding 300 μL/well of 1% bovine serum albumin (BSA) (w/v) in PBS for 1 hour (hr) at 25° C. The plates were washed as above.
(§11) Solutions of D93 and HUI77 antibodies were prepared with various concentrations of inhibitor and incubated for 15 minutes. Briefly, 20 mLs of D93 or HUI77 were prepared at 200 ng/mL in 1% BSA/PBS. Solutions of peptide inhibitors (2 mM, 0.2 mM, […]) were prepared in 1% BSA/PBS. Equal volumes of antibodies and peptide inhibitors were combined: 200 μL of D93 or HUI77 (200 ng/mL solution) with 200 μL of each peptide solution.
(§12) 100 μL/well of D93 or HUI77 at 100 ng/mL with various concentrations of inhibitors were added to the wells in triplicate and incubated for 1 hour at 25° C. The plates were washed as described above.
(§13) 100 μL/well of secondary horseradish peroxidase (HRP)-conjugated antibody in PBST was added to each well and incubated for 1 hour (hr) at 25° C. […]

[2] = test system: HUI77 binding to denatured collagen IV; assay: Competition ELISA: synthetic peptides blocking HUI77 binding to heat denatured collagen IV; set-up: species or system human
Method: as §1, §2, §3, §4, §5, §6, §7, §8, §9, §10, §11, §12, §13

[3] = peptide inhibitor concentration 1 μM, average of two studies, vs 1% BSA/PBS alone
[4] = peptide inhibitor concentration 10 μM, average of two studies, vs 1% BSA/PBS alone
[5] = peptide inhibitor concentration 100 μM, average of two studies, vs 1% BSA/PBS alone
[6] = peptide inhibitor concentration 1000 μM, average of two studies, vs 1% BSA/PBS alone
[7] = peptide inhibitor concentration 10 μM, average of two studies
[8] = peptide inhibitor concentration 100 μM, average of two studies
[9] = peptide inhibitor concentration 1000 μM, average of two studies
[10] = peptide inhibitor concentration 10 μM, asterisk (*): data from a separate assay
[11] = peptide inhibitor concentration 100 μM, asterisk (*): data from a separate assay
[12] = peptide inhibitor concentration 1000 μM, asterisk (*): data from a separate assay

Row | % INHIBITION OF BINDING OF D93 TO HUMAN DENATURED-COLLAGEN IV [1, 3] [%] | % INHIBITION OF BINDING OF D93 TO HUMAN DENATURED-COLLAGEN IV [1, 4] [%] | % INHIBITION OF BINDING OF D93 TO HUMAN DENATURED-COLLAGEN IV [1, 5] [%] | % INHIBITION OF BINDING OF D93 TO HUMAN DENATURED-COLLAGEN IV [1, 6] [%] | % INHIBITION OF BINDING OF HUI77 TO DENATURED COLLAGEN IV [2, 7] [%] | % INHIBITION OF BINDING OF HUI77 TO DENATURED COLLAGEN IV [2, 8] [%] | % INHIBITION OF BINDING OF HUI77 TO DENATURED COLLAGEN IV [2, 9] [%] | % INHIBITION OF BINDING OF D93 TO HUMAN DENATURED-COLLAGEN IV ([1]; peptide inhibitor concentration 1 μM, average of two studies, vs 1% BSA/PBS alone, listed as 20 (21), 1 µM) [%] | % INHIBITION OF BINDING OF D93 TO HUMAN DENATURED-COLLAGEN IV ([1]; peptide inhibitor concentration 10 μM, average of two studies, vs 1% BSA/PBS alone, listed as 20 (21), 10 µM) [%] | % INHIBITION OF BINDING OF D93 TO HUMAN DENATURED-COLLAGEN IV ([1]; peptide inhibitor concentration 100 μM, average of two studies, vs 1% BSA/PBS alone, listed as 20 (21), 100 µM) [%] | % INHIBITION OF BINDING OF D93 TO HUMAN DENATURED-COLLAGEN IV ([1]; peptide inhibitor concentration 1000 μM, average of two studies, vs 1% BSA/PBS alone, listed as 20 (21), 1000 µM) [%] | % INHIBITION OF BINDING OF HUI77 TO DENATURED COLLAGEN IV ([2]; peptide inhibitor concentration 100 μM, average of two studies, listed as 20 (21), 100 µM) [%] | % INHIBITION OF BINDING OF HUI77 TO DENATURED COLLAGEN IV ([2]; peptide inhibitor concentration 1000 μM, average of two studies, listed as 20 (21), 1000 µM) [%] | % INHIBITION OF BINDING OF D93 TO HUMAN DENATURED-COLLAGEN IV ([1]; peptide inhibitor concentration 1 μM, asterisk (*): data from a separate assay) | % INHIBITION OF BINDING OF D93 TO HUMAN DENATURED-COLLAGEN IV [1, 10] | % INHIBITION OF BINDING OF D93 TO HUMAN DENATURED-COLLAGEN IV [1, 11] | % INHIBITION OF BINDING OF D93 TO HUMAN DENATURED-COLLAGEN IV [1, 12] | % INHIBITION OF BINDING OF HUI77 TO DENATURED COLLAGEN IV [2, 10] | % INHIBITION OF BINDING OF HUI77 TO DENATURED COLLAGEN IV [2, 11] | % INHIBITION OF BINDING OF HUI77 TO DENATURED COLLAGEN IV [2, 12] | Substance
1 | 11 | 6 | 4 | 11.5 | 8 | 10.5 | 10 | – | – | – | – | – | – | – | – | – | – | – | – | – | PGAKGLPGP ([Hyp]GAKGLPGP) [SEQ ID NO: 17]
2 | 11 | 43 | 89.5 | 93.5 | 4.5 | 9 | 62 | – | – | – | – | – | – | – | – | – | – | – | – | – | F-Hyp-G-P-Hyp-G-P-D-G-L-P-G-S-M-G-P-Hyp-G (F[Hyp]GP[Hyp]GPDGLPGSMGP[Hyp]G) [SEQ ID NO: 36]
3 | – | – | – | – | 6.5 | – | – | 13 | 35.5 | 85.5 | 92.5 | 18 | 86 | – | – | – | – | – | – | – | LPGPPGPPG (LPGP[Hyp]GP[Hyp]G) [SEQ ID NO: 21]
4 | 33.5 | 83 | 93.5 | 93.5 | 7 | 16 | 86.5 | – | – | – | – | – | – | – | – | – | – | – | – | – | PGPPGPPGPY (PGP[Hyp]GP[Hyp]GPY) [SEQ ID NO: 28]
5 | – | – | – | – | – | – | – | – | – | – | – | – | – | 5.4* % | 7.8* % | 8.3* % | 11.6* % | 10.2* % | 0* % | 3.7* % | LPGFPG [SEQ ID NO: 38, reference compound]
